According to patent US20150140015A1, “METHODS AND PHARMACEUTICAL COMPOSITIONS FOR THE TREATMENT OF PANCREATIC CANCER” (INSERM (Institut National de la Sante et de la Recherche …, priority 2013, published 2015):
Entries after “also recorded” stand apart in the source; their conditions may differ.

Experiments:
[1] = tested on: AsPC-1 cells xenografted in nude mice; assay: Tumorigenicity assay: AsPC-1 cells xenografted in nude mice; format: in vivo; details: for decrease of tumor volume: 30-day treatment; for activated caspase-3 immunostaining in xenografted AsPC-1 tumors: orexin-A 1 μmoles/Kg daily i.p., 30 days
Method: FIGS. 6A and B. Effect of daily inoculation of orexin-A on the growth of tumors developed by xenografting human PDCA cells in nude mice. AsPC-1 cells were inoculated in the flank of nude mice at day 0. Mice were injected daily intraperitoneally with 100 μl of orexin-A solutions starting at day 0 (◯) or day 14 (▴) or with 100 μl of PBS ([…]) for controls. A, the daily treatment corresponded to 1 μmoles of orexin-A/Kg. Inset represents the tumor weight measured at the end of the experiment after the mice were sacrificed; B, mice received 0.01, 0.1, 1 or 10 μmoles of orexin-A/kg. After 30 days of treatment, mice were sacrificed and tumor volume and weight were then recorded. The development of tumors was followed by caliper measurement. Data are the means±SE of 6 tumors in each group. *** p<0.01 versus control.
FIG. 7A-F. Indirect immunostaining of activated caspase-3 in xenografted AsPC-1 tumors resected from nude mice. Paraformaldehyde-fixed xenografted AsPC-1 tumors from nude mice treated daily (B, D and F) by intraperitoneal injections with 1 μmoles/Kg orexin-A or not (A, C and E). […] OX1R immunostaining localisation was similar under control and orexin-A treatment conditions.
Control mice received PBS.
After dewaxing, rehydrating tumor paraffin sections, and antigen retrieval by pretreatment with high temperature at pH 9, immunohistochemical procedures were carried out using an automated immunohistochemical stainer according to the manufacturer's guidelines (Bond-Max slide stainer, Menarini, Leica Microsystems). For immunohistochemistry on cell lines, cells in pellets were fixed in formalin, embedded in cell blocks (Shandon Cytoblock; Thermo Scientific; USA) and cut into 3 μm sections. OX1R evaluation was performed in human PDAC, included in TMA, in xenografted tumors and in cell lines (AsPC-1, HPAF-II and HPAF-II/hOX1R). After antigen retrieval, 3 μm cells or tissue sections were incubated for 30 minutes with a polyclonal anti-OX1R antibody (My Bio Source; polyclonal goat; 1/300), rinsed, and then incubated with a biotinylated secondary rabbit anti-goat antibody (Vector BA-500; 1/400). Sections were rinsed and incubated with Streptavidin (TrekAvidin-HRP; Biocare Medical) and DAB ultraview detection kit (Bond Polymer Refine detection; DS9800; Leica Microsystems). Substitution of the primary antibody with PBS was used as a negative control. OX1R immunostaining was evaluated by two investigators (TV and AC) by calculating a score (0-300) obtained by multiplying the intensity (negative, 0; weak, 1; moderate, 2; and strong, 3) by the percentage of stained cells. The pattern of expression (cytoplasmic, membranous, and nuclear) was also recorded, and a mean score was calculated for each tumor. Internal positive controls consisted of normal pancreatic islets while the HEK/hOX1R cell line served as an external positive control. Specificity of the immunostaining was verified by incubation of OX1R antibody with its homologous immunogenic peptide or omission of the primary antibody. Apoptosis determination was performed in tumor cell lines (AsPC-1, HPAF-II and HPAF-II/hOX1R) and resected xenografts, treated or not with orexin-A. Three μm cell sections were immunolabelled for activated caspase-3 after antigen retrieval (ABGENT; cleaved caspase 3; polyclonal rabbit; 1/100) using a detection kit (Bond Polymer Refine detection; DS9800; Leica Microsystems). Substitution of the primary antibody with PBS was used as a negative control. External positive controls consisted of normal lymph nodes. Cleaved caspase-3 immunostaining was determined by calculating the percentage of tumor cells stained in 10 fields of xenografted tumor cells, each field comprising 500 tumor cells.

AsPC-1 cells = assay: Cell growth of AsPC-1 cells (cell counting); format: cell-based, human; details: Example 1; Orexin-A treatment of the OX1R-expressing AsPC-1 cell line
Method: FIG. 9. Effect of Orexin-B anti-OX1R antibodies on cell growth of AsPC-1 cells. Cells were incubated with 0.1 μM of OxB or antibodies for 48 h in culture medium and then cells were counted in order to estimate the cellular growth.
The aims of this study were: 1/ to investigate the presence of OX1R in human PAC cell lines and to analyze orexin-A effects in relation to apoptosis; 2/ to develop an in vivo heterotopic xenograft model from the cell lines expressing OX1R, for the study of tumor growth in response to Orexin-A. The expression of OX1R was studied at mRNA (RT-PCR), proteins (immunocytochemistry) and functional levels in 3 PAC cell lines (AsPC-1, HPAF-II and SW1990). The development of an animal model (heterotopic xenograft) from the cell line expressing OX1R, has allowed studying the effect of Orexin-A in tumor growth. Resected tumors were analyzed by immunohistochemistry. Only AsPC-1 cell line expresses OX1R.
The development of antibodies directed against OX1R were produced by a phage display strategy and the antibody selection was performed by using HEK and HEK stably expressing OX1R (HEK-OX1R) cell lines. […] Cells were incubated with 0.1 μM of OxB or antibodies for 48 h in culture medium and then cells were counted in order to estimate the cellular growth. […]

orexin-A: 33 amino acid hypothalamic neuropeptide, OX1R agonist, SEQ ID NO:2; peptide from GL Biochemicals
decrease in tumor volume as compared to untreated mice ([1]; 1 μmol/kg daily i.p. beginning the day cells were xenografted): 48.8%
volume of established tumors ([1]; 1 μmol/kg daily, started 14 days after cell inoculation): rapidly and strongly reduced
weight of tumors, treatment from day 0 versus from day 14 ([1]; 1 μmol/kg daily, tumors resected after sacrifice): No differences
tumoral cell death (Hemalum Eosin Safran staining) ([1]; 1 μmoles/Kg orexin-A daily i.p.): induced tumoral cell death
decrease of tumor volume ([1]; 0.01 moles orexin-A/kg (so in the source)): 34.4%
decrease of tumor volume ([1]; 0.1 moles orexin-A/kg (so in the source)): 30.6%
decrease of tumor volume ([1]; 1 moles orexin-A/kg (so in the source)): 46.7%
decrease of tumor volume ([1]; 10 moles orexin-A/kg (so in the source)): 52.8%
decline of tumor progression ([1]; Example 1, Orexin-A injection): 49%
activated caspase-3 immunostaining in xenografted AsPC-1 tumors [1]: intense staining
activated caspase-3 immunostaining in xenografted AsPC-1 tumors ([1]; listed as Orexin-A): strong immunostaining; also recorded: Induction of apoptosis was observed
cell growth inhibition (AsPC-1 cells): 32%
